One test concerns the target GppNHp-loaded RHEB (Homo sapiens, UniProt Q15382). Briefly: Microscale thermophoresis on GppNHp-loaded RHEB. It counts as binding. The note with it: MST, up to 190 μM. On the procedure: (§1) KRAS^G12D (250 μM) in 25 mM HEPES, 100 mM sodium chloride, 2 mM TCEP with 20 mM EDTA and 1 mM GppNHp was shaken at 220 rpm at 30° C. to remove the endogenous nucleotide, The solution was placed on ice for 2 minutes prior to the addition of 65 mM MgCl2. After an additional 10 minutes incubation on ice, 200 uL of a 10 uM solution of KRAS^G12D was combined with 200 uL of a 20 uM solution of NT-647-NHS-ester dye (from a 652.4 μM stock). The protein/dye mixture was rotated at 4° C. for 30 minutes, before being separated from the excess dye and buffer exchanged into 25 mM Tris, 100 mM sodium chloride, 2 mM TCEP, and 5 mM MgCl2 via a nap-5 column. The test compounds were arrayed across a 16-point dilution series consisting of 1.5% DMSO with 25 mM Tris, 100 mM NaCl, 2 mM TCEP, 5 mM MgCl2 and 0.05% tween-20. Thermophoretic movement of the fluorescently labeled protein with the inhibitors was performed using a Monolith NT.115 (Nanotemper Technologies). RALA and RHOA were purchased commercially from Abcam (RALA CN:ab102555, RHOA CN:ab101594).
To provide evidence that the compound indeed was selective for RAS GTPases, MST binding measurements were performed on GppNHp-loaded RHEB, RHOA and RALA (FIG. 14J).

Another test addresses T1, KRAS^G12D with GDP (Homo sapiens, UniProt P01116, G12D).
T1 construct: made in house; host or cells: Escherichia coli BL21-Gold (DE3)
The test is described as follows: Microscale thermophoresis, GDP-loaded KRAS^G12D. It counts as binding. On the procedure:
as §1, with “KRAS^G12D (250 μM) in 25 mM HEPES, 100 mM sodium chloride, 2 mM TCEP with 20 mM EDTA and 1 mM GppNHp was shaken at 220 rpm at 30° C. to remove the endogenous nucleotide, The solution was placed on ice for 2 minutes prior to the addition of 65 mM MgCl2.” left out
(In general: Microscale thermophoresis detects binding through changes in fluorescence in a small temperature gradient.)

Test [1] relates to primary T-ALL cells with mutant NRAS (G13V and G13D). Briefly: Viability of patient-derived T-ALL samples cultured in vitro, mutant NRAS. Type of test: cell-based. The following applies: Homo sapiens, 72 hours, relative to vehicle. As for the experimental part:
Primary Cell Co-Culture and In Vitro Cell Viability Assays.
Cells were harvested 72 hours after treatment and analyzed cell viability using the BD cell viability kit with liquid counting beads (BD Bioscience) gating out stroma cells (GFP+), dead cells and particles (PI+). We acquired data using a FACSCanto II flowcytometer (BD Bioscience) and analyzed it using FlowJo software (Tree Star, Inc.). Viability data is represented as % relative to vehicle treatment.

The subject of test [2] is HT-1080 cells (NRAS^Q61K) transfected. The test is described as follows: Sensitivity of HT-1080 cells overexpressing KRAS^G12V, PI3K^E545K, BRAF^V600E. Type of test: cell-based. The following applies: BRAF^V600E or both, 5 μM, 24 h. On the procedure: RAS, PI3K and BRAF Overexpression.
Phoenix-AMPHO (ATCC: CRL-3213) cells were seeded in a 6-well plate at 600,000 cells/well 24 hours prior to use in 10% FBS and 1% PS in DMEM. A solution of lipofectamine 2000 (6 μL) in 100 μL opti-mem media (reduced serum media) and the plasmid (2.5 μg) in 100 μL opti-mem media were combined and incubated 5 minutes at 25° C., then added to 1.8 mL of opti-mem in each well. After 12 hours, the media was replaced with 10% FBS and 1% PS in DMEM. The next day the supernatant was collected three times spaced 4 hours apart and polybrene was added ( 1/1000). The supernatant was filtered (0.45 μm) and added to HT1080 cells seeded at 100,000 cells per well (6-well dish) in 2 mL portions spaced 4 hours apart. After 48 hours, the cells were trypsinized and re-seeded in medium containing puromycin (2 μg/mL). After 6 days of selection the cells were analyzed for expression using the aforementioned qPCR procedure. 2 mL solutions of the inhibitors were added to a 6-well plate of the transfected HT-1080 cells (100,000 cells/well) and treated for 24 hours. The cells were then trypsinized, re-suspended in 1 mL of medium and viability was measured by VI-CELL (Beckman Coulter) through mixing with trypan blue.

Test [3] has as its system Mouse embryonic fibroblasts (MEFs), null Hras and Nras, floxed Kras. The test is described as follows: Growth inhibition of MEFs with floxed Kras locus. Type of test: cell-based. The following applies: up to 5 μM, 24 hours, vs DMSO. On the procedure:
In parallel, cells were treated with DMSO or 4OHT at 600 nM for 6 days. […] Cells were then lysed and treated with a pro-fluorescent caspase 3/7 substrate (rhodamine 110 bis-N-CBZ-L-aspartyl-L-gluramyl-L-valyl-aspartic acid amide) for 16 hours and measured.
All cell culture assays were incubated at 37° C., 5% CO2 in media containing Dulbecco's Modified Eagle Medium (DMEM) with 10% fetal bovine serum (FBS) and 1% penicillin-streptomycin (PS). 384-well format for EC50 determination: cells were trypsinized, counted, and seeded into 384-well plates at 1,000 cells/well. After 12-16 hours, compounds (as 50 mM stocks in DMSO) were arrayed in an 8- or 16-point dilution series in 384-well polypropylene plates. Compound solutions were transferred at a 1:5 dilution into the assay plates. After 48 hours, a 50% Alamar blue solution was added to a final concentration of 10% Alamar blue. After 6 hours of incubation, fluorescence intensity was determined using a Victor3 plate reader (Perkin Elmer) with a 535 nm excitation filter and a 590 nm emission filter. All compound measurements were performed in triplicate. For experiments performed in 6-well format, cells were trypsinized, counted, and seeded into 6-well plates at 200,000 cells per well 16 h prior to use. […] After 24 hours, cells were trypsinized and viability was determined using Trypan Blue exclusion assay. […]

Structures are written as SMILES.

GppNHp-loaded RHEB, sequence (Q15382 whole entry): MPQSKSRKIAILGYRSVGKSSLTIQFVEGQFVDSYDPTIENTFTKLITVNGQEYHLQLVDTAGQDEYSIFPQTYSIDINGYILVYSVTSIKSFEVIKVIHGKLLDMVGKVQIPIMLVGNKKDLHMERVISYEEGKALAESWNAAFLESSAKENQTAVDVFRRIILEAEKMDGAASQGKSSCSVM

The Kd is the equilibrium constant for the complex coming apart. Read a high Kd as lower affinity. The viability is the share of living cells, or the viability signal relative to a control. The low end stands for more harm to the cells, the high end for less harm to the cells. `NC1(C(=O)NCCCn2cc(-c3ccc(OC(F)(F)F)cc3)c3cc(CN4CCN(Cc5c(Cl)cccc5Cl)CC4)ccc32)CCNCC1` [Compound 31MEW44, 4-amino-N-(3-(5-((4-(2,6-dichlorobenzyl)piperazin-1-yl)methyl)-3-(4-(trifluoromethoxy)phenyl)-1H-indol-1-yl)propyl)piperidine-4-carboxamide]: at GppNHp-loaded RHEB, the binding entry is listed as “no binding was observed”. In addition, at KRAS^G12D with GDP (GDP-loaded vs GppNHp-loaded KRAS^G12D), the loss in affinity entry is “five-fold”. Also, the Kd on KRAS^G12D with GDP (MST, GDP-loaded KRAS^G12D) was determined as 45 µM. The viability at 5 µM in test [1] was in the range of 20 to 40%. Further, in test [2], the resistance on overexpression entry is on record as “resistance was indeed observed in all cases”. This molecule returned a growth inhibition in test [3] of 75%.

The values above are taken from patent US9926293B2, “Multivalent RAS binding compounds” (THE TRUSTEES OF COLUMBIA UNIVERSITY IN THE CITY OF NEW YORK, priority 2014, dated 2018).
